According to article PMC5300203, “O-prenylated 3-carboxycoumarins as a novel class of 15-LOX-1 inhibitors” (PLoS ONE, 2017):
Read-outs that look alike come from different tables or passages of the source.

Columns and labels:
[1] = target: T1, human 15-LOX-1 (Homo sapiens, UniProt P16050); test: Lipoxygenase inhibitory assessment (DMAB-MBTH peroxide method, linoleic acid substrate); assay type: biochemical
T1 construct: Human 15-LOX-1 was prepared from isolated human eosinophil based on the procedure reported by Sigal et al; from tissue; host or cells: eosinophils purified from blood of hypereosinophilic human donors; 100,000 g supernatant, 30% and 60% ammonium sulfate pellets
T1 sequence (P16050 1-662): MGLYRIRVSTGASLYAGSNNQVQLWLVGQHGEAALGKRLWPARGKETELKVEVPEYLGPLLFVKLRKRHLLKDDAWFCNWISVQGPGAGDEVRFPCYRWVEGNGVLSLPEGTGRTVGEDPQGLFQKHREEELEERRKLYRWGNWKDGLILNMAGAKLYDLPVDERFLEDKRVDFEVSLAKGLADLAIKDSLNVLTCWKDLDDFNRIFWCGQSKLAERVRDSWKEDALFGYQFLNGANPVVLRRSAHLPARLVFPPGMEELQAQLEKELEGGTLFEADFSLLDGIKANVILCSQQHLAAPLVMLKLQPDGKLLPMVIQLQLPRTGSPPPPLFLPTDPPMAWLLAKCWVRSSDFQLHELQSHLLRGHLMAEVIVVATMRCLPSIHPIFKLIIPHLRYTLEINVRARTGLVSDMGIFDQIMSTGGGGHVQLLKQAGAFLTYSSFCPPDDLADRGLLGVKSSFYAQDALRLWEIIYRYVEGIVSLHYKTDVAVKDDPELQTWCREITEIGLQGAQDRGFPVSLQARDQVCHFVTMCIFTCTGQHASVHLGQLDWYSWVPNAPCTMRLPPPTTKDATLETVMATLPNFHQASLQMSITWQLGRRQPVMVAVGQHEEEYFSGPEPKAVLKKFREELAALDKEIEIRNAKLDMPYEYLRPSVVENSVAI
Protocol: The inhibitory activity of the synthetic compounds against human 15-LOX-1 was determined utilizing modified catalytic oxidative coupling of 3-methyl-2-benzothiazolinone (MBTH) with 3-(dimethylamino)benzoic acid (DMAB) as reported in previous studies. In this method, the basis for the determination of lipoxygenase activity is the measurement of peroxide concentration. Human 15-LOX-1 was prepared from isolated human eosinophil based on the procedure reported by Sigal et al. […] Because of the instability of the purified 15-LOX-1, the crude form of the enzyme was utilized. Eosinophils from blood of hypereosinophilic donors (8–11% eosinophils) were purified to more than 85% through “hypotonic lysis and centrifugation” method reported by Samoszuk.
Linoleic acid and two assay solutions (A and B) were prepared in advance.
Solution A was 50 mM DMAB in an l00 mM phosphate buffer (pH 7.0). Solution B was a mixture of l0 mM MBTH (3 mL), hemoglobin (5 mg/mL, 3 mL) in 50 mM phosphate buffer at pH 5.0 (25 ml). A linoleic acid solution was prepared by mixing 5.6 mg of linoleic acid (Sigma Aldrich, L1376) with 0.5 mL methanol and then diluted with KOH 100 mM to a final volume of 5 mL (4 mM).
In the standard assay, the sample in DMSO (12.5 μL), 15-LOX-1 (104 units/mL; 30 μL) and phosphate buffer, pH 7.0 (50 mM; 435 μL) were mixed in 48 well plate and perincubation was carried out for 10 min at 30°C. A control test was done with the same volume of ethanol. After the preincubation, linoleic acid solution (25 μL) was added to start the peroxidation reaction at 30°C, and, 10 min later, solution A (135 μL) and then solution B (65 μL) was added to start the color formation. Further, 3 min later, 100 μL of a 2% SDS solution was added to terminate the reaction. The absorbance at 598 nm was compared with the control test. These experiments were performed in triplicate. The data analysis was performed using GraphPad Prism 5.01.

[2] = human 15-LOX-1 from eosinophils (crude), linoleic acid, 30°C, ± SD (n = 3), read-out: IC50
[3] = human 15-LOX-1 from eosinophils (crude), linoleic acid, 30°C, ± SD (n = 3)

SMILES	IC50 [1, 2] [µM]	melting point [°C]	IC50 [1] [µM]	higher lipoxygenase inhibitory activity compared to the corresponding carboxylate-off analog ([1]; 3-carboxycoumarin vs farnesyloxycoumarin without carboxylic acid (4d vs 4d')) [folds]	IC50 [1, 3] [µM]	lower lipoxygenase inhibitory potency compared to the corresponding carboxylate-off analog ([1]; 3-carboxycoumarin vs farnesyloxycoumarin without carboxylic acid (d vs d')) [folds]
Cc1nc(N2CCN(C)CC2)nc2c1Sc1ccccc1N2 [Compound 4-MMPB, 4-methyl-2-(4-methylpiperazinyl)pyrimido[4,5-b]benzothiazine, reference compound]	16.8 ± 1.1	–	–	–	–	–
C=CCOc1cccc2oc(=O)c(C(=O)O)cc12 [Compound 4a, 5-(allyloxy)-2-oxo-2H-chromene-3-carboxylic acid]	93.5 ± 7.6	115 to 117	–	–	–	–
CC(C)=CCOc1cccc2oc(=O)c(C(=O)O)cc12 [Compound 4b, 5-(3-methylbut-2-enyloxy)-2-oxo-2H-chromene-3-carboxylic acid]	62.5 ± 5.9	85 to 86	–	–	–	–
CC(C)=CCC/C(C)=C/COc1cccc2oc(=O)c(C(=O)O)cc12 [Compound 4c, 5-((E)-3,7-dimethylocta-2,6-dienyloxy)-2-oxo-2H-chromene-3-carboxylic acid]	4.8 ± 0.55	49 to 50	–	–	–	–
CC(C)=CCC/C(C)=C/CC/C(C)=C/COc1cccc2oc(=O)c(C(=O)O)cc12 [Compound 4d, 5-((2E,6E)-3,7,11-trimethyldodeca-2,6,10-trienyloxy)-2-oxo-2H-chromene-3-carboxylic acid]	–	39 to 40	0.74 ± 0.05	2	1.6 ± 0.08	–
C=CCOc1ccc2oc(=O)c(C(=O)O)cc2c1 [Compound 8a, 6-(allyloxy)-2-oxo-2H-chromene-3-carboxylic acid]	296 ± 26.3	167 to 168	–	–	–	–
CC(C)=CCOc1ccc2oc(=O)c(C(=O)O)cc2c1 [Compound 8b, 6-(3-methylbut-2-enyloxy)-2-oxo-2H-chromene-3-carboxylic acid]	227 ± 22.1	158 to 159	–	–	–	–
CC(C)=CCC/C(C)=C/COc1ccc2oc(=O)c(C(=O)O)cc2c1 [Compound 8c, Ethyl 6-((E)-3,7-dimethylocta-2,6-dienyloxy)-2-oxo-2H-chromene-3-carboxylic acid]	21.5 ± 1.6	130 to 131	–	–	–	–
CC(C)=CCC/C(C)=C/CC/C(C)=C/COc1ccc2oc(=O)c(C(=O)O)cc2c1 [Compound 8d, 6-((2E,6E)-3,7,11-trimethyldodeca-2,6,10-trienyloxy)-2-oxo-2H-chromene-3-carboxylic acid]	–	98 to 99	10.4 ± 2.1	–	1.0 ± 0.06	10
C=CCOc1ccc2cc(C(=O)O)c(=O)oc2c1 [Compound 12a, 7-(allyloxy)-2-oxo-2H-chromene-3-carboxylic acid]	114 ± 10.1	205 to 207	–	–	–	–
CC(C)=CCOc1ccc2cc(C(=O)O)c(=O)oc2c1 [Compound 12b, 7-(3-methylbut-2-enyloxy)-2-oxo-2H-chromene-3-carboxylic acid]	81.3 ± 5.3	147 to 148	–	–	–	–
CC(C)=CCC/C(C)=C/COc1ccc2cc(C(=O)O)c(=O)oc2c1 [Compound 12c, 7-((E)-3,7-dimethylocta-2,6-dienyloxy)-2-oxo-2H-chromene-3-carboxylic acid]	12.1 ± 0.91	118 to 119	–	–	–	–
CC(C)=CCC/C(C)=C/CC/C(C)=C/COc1ccc2cc(C(=O)O)c(=O)oc2c1 [Compound 12d, 7-((2E,6E)-3,7,11-trimethyldodeca-2,6,10-trienyloxy)-2-oxo-2H-chromene-3-carboxylic acid]	–	87 to 90	–	–	–	–
C=CCOc1cccc2cc(C(=O)O)c(=O)oc12 [Compound 18a, 8-(allyloxy)-2-oxo-2H-chromene-3-carboxylic acid]	293 ± 20.3	198 to 200	–	–	–	–
CC(C)=CCOc1cccc2cc(C(=O)O)c(=O)oc12 [Compound 18b, 8-(3-methylbut-2-enyloxy)-2-oxo-2H-chromene-3-carboxylic acid]	263 ± 23	143 to 144	–	–	–	–
CC(C)=CCC/C(C)=C/COc1cccc2cc(C(=O)O)c(=O)oc12 [Compound 18c, 8-((E)-3,7-dimethylocta-2,6-dienyloxy)-2-oxo-2H-chromene-3-carboxylic acid]	20.4 ± 2.2	100 to 101	–	–	–	–
